Calls of active or inactive are those of the source. The calls are words filed in the database; no cut-off is given here.
Assays:
[1] = Plasma concentration in C57BL/6 mouse at 6 mg/kg, po administered as single dose after 0.25 to 24 hrs by LC/MS/MS analysis; format: ADME, organism-based; settings: in vivo, time 0.25-24 hrs
Hepatitis B virus [2] = assay: Antiviral activity against ETV-resistant and adenovirus AdH294-7LR harboring wild-type HBV infected in human HepG2 cells assessed as reduction in viral replicative intermediate DNAs at 4 to 1000 nM incubated for 5 days by Southern blot analysis; format: functional, organism-based; settings: time 5.0 day
Hepatitis B virus [3] = assay: Antiviral activity against ETV-resistant and adenovirus AdH294-7LR harboring wild-type HBV infected in human HepG2 cells assessed as viral replicative intermediate DNA level at 4 nM incubated for 5 days by Southern blot analysis (reference value: 100%); format: functional; settings: time 5 day
Hepatitis B virus [4] = assay: Antiviral activity against ETV-resistant and adenovirus AdH294-7LR harboring wild-type HBV infected in human HepG2 cells assessed as viral replicative intermediate DNA level at 13 nM incubated for 5 days by Southern blot analysis (reference value: 100%); format: functional; settings: time 5 day
Hepatitis B virus [5] = assay: Antiviral activity against ETV-resistant and adenovirus AdH294-7LR harboring wild-type HBV infected in human HepG2 cells assessed as viral replicative intermediate DNA level at 40 nM incubated for 5 days by Southern blot analysis (reference value: 100%); format: functional; settings: time 5 day
Hepatitis B virus [6] = assay: Antiviral activity against ETV-resistant and adenovirus AdH294-7LR harboring wild-type HBV infected in human HepG2 cells assessed as viral replicative intermediate DNA level at 120 nM incubated for 5 days by Southern blot analysis (reference value: 100%); format: functional; settings: time 5 day
Hepatitis B virus [7] = assay: Antiviral activity against ETV-resistant and adenovirus AdH294-7LR harboring wild-type HBV infected in human HepG2 cells assessed as viral replicative intermediate DNA level at 370 nM incubated for 5 days by Southern blot analysis (reference value: 100%); format: functional; settings: time 5 day
Hepatitis B virus [8] = assay: Antiviral activity against ETV-resistant and adenovirus AdH294-7LR harboring wild-type HBV infected in human HepG2 cells assessed as viral replicative intermediate DNA level at 1100 nM incubated for 5 days by Southern blot analysis (reference value: 100%); format: functional; settings: time 5 day
Hepatitis B virus [9] = assay: Antiviral activity against ETV-resistant and adenovirus AdH294-7LR harboring wild-type HBV infected in human HepG2 cells assessed as viral replicative intermediate DNA level at 3300 nM incubated for 5 days by Southern blot analysis (reference value: 100%); format: functional; settings: time 5 day
Hepatitis B virus [10] = assay: Antiviral activity against ETV-resistant and adenovirus AdH294-7LR harboring wild-type HBV infected in human HepG2 cells assessed as viral replicative intermediate DNA level at 10000 nM incubated for 5 days by Southern blot analysis (reference value: 100%); format: functional; settings: time 5 day
Hepatitis B virus [11] = assay: Antiviral activity against adenovirus AdH294-WT harboring wild-type HBV genotype D accession #V01460 infected in human HepG2 cells assessed as reduction in viral replicative intermediate DNA level at 4 nM incubated for 5 days by Southern blot analysis (reference value: 100%); format: functional; set-up: scale not given: the % may be the effect or the level left; settings: time 5 day
Hepatitis B virus [12] = assay: Antiviral activity against adenovirus AdH294-WT harboring wild-type HBV genotype D accession #V01460 infected in human HepG2 cells assessed as reduction in viral replicative intermediate DNA level at 13 nM incubated for 5 days by Southern blot analysis (reference value: 100%); format: functional; set-up: scale not given: the % may be the effect or the level left; settings: time 5 day
Hepatitis B virus [13] = assay: Antiviral activity against adenovirus AdH294-WT harboring wild-type HBV genotype D accession #V01460 infected in human HepG2 cells assessed as reduction in viral replicative intermediate DNA level at 40 nM incubated for 5 days by Southern blot analysis (reference value: 100%); format: functional; set-up: scale not given: the % may be the effect or the level left; settings: time 5 day
Hepatitis B virus [14] = assay: Antiviral activity against adenovirus AdH294-WT harboring wild-type HBV genotype D accession #V01460 infected in human HepG2 cells assessed as reduction in viral replicative intermediate DNA level at 120 nM incubated for 5 days by Southern blot analysis (reference value: 100%); format: functional; set-up: scale not given: the % may be the effect or the level left; settings: time 5 day
Hepatitis B virus [15] = assay: Antiviral activity against adenovirus AdH294-WT harboring wild-type HBV genotype D accession #V01460 infected in human HepG2 cells assessed as reduction in viral replicative intermediate DNA level at 370 nM incubated for 5 days by Southern blot analysis (reference value: 100%); format: functional; set-up: scale not given: the % may be the effect or the level left; settings: time 5 day
Hepatitis B virus [16] = assay: Antiviral activity against adenovirus AdH294-WT harboring wild-type HBV genotype D accession #V01460 infected in human HepG2 cells assessed as reduction in viral replicative intermediate DNA level at 1100 nM incubated for 5 days by Southern blot analysis (reference value: 100%); format: functional; set-up: scale not given: the % may be the effect or the level left; settings: time 5 day
Hepatitis B virus [17] = assay: Antiviral activity against adenovirus AdH294-WT harboring wild-type HBV genotype D accession #V01460 infected in human HepG2 cells assessed as reduction in viral replicative intermediate DNA level at 3300 nM incubated for 5 days by Southern blot analysis (reference value: 100%); format: functional; set-up: scale not given: the % may be the effect or the level left; settings: time 5 day
Hepatitis B virus [18] = assay: Antiviral activity against adenovirus AdH294-WT harboring wild-type HBV genotype D accession #V01460 infected in human HepG2 cells assessed as reduction in viral replicative intermediate DNA level at 10000 nM incubated for 5 days by Southern blot analysis (reference value: 100%); format: functional; set-up: scale not given: the % may be the effect or the level left; settings: time 5 day
Hepatitis B virus [19] = assay: Antiviral activity against HBV infected in human HepDE19 cells assessed as reduction in HBV cccDNA incubated for 9 days by qPCR analysis; format: functional, organism-based; settings: HepDE19, 216 h
[20] = Toxicity in human HepDE19 cells assessed as reduction in beta-actin level incubated for 9 days by qPCR analysis; format: cell-based; settings: time 9 day
[21] = Selectivity index, […] against HBV infected in human HepDE19 cells to CC50 for toxicity in human HepDE19 cells; format: cell-based; settings: read-out: Ratio CC50/IC50
Hepatitis B virus [22] = assay: Antiviral activity against HBV infected hydrodynamic injection C57BL/6 mouse model assessed as reduction in serum HBV DNA level at 0.6 to 60 mg/kg, po QD for 6 days by qPCR analysis; format: functional, organism-based; settings: dose mg/kg 0.6-60, time 6.0 day
[23] = Toxicity in HBV infected hydrodynamic injection C57BL/6 mouse model assessed as effect on body weight at 0.6 to 60 mg/kg, po QD for 6 days; format: organism-based; settings: in vivo, 144 h, dose 0.6-60 mg/kg, time 6 day

Compound: Nc1ncnc2c1ncn2[C@H]1C[C@@H](OCP(=O)(O)O)CO1
- Cp [1]: < 1.01 ng/mL

Compound: CC(C)OC(=O)[C@H](C)N[P@](=O)(CO[C@H](C)Cn1cnc2c(N)ncnc21)Oc1ccccc1 [TENOFOVIR ALAFENAMIDE]
- Activity (Hepatitis B virus [2]): Active
- Activity (Hepatitis B virus [3]): 93.7%
- Activity (Hepatitis B virus [4]): 38.3%
- Activity (Hepatitis B virus [5]): 21.4%
- Activity (Hepatitis B virus [6]): 11.3%
- Activity (Hepatitis B virus [7]): 5%
- Activity (Hepatitis B virus [8]): 2.6%
- Activity (Hepatitis B virus [9]): 1.2%
- Activity (Hepatitis B virus [10]): 0%
- Activity (Hepatitis B virus [11]): 75.6%
- Activity (Hepatitis B virus [12]): 40.7%
- Activity (Hepatitis B virus [13]): 18.1%
- Activity (Hepatitis B virus [14]): 10.8%
- Activity (Hepatitis B virus [15]): 4.2%
- Activity (Hepatitis B virus [16]): 1.3%
- Activity (Hepatitis B virus [17]): 0%
- Activity (Hepatitis B virus [18]): 0%
- IC50 (Hepatitis B virus [19]): 40 nM
- IC90 (Hepatitis B virus [19]; time 9 day): > 100 nM
- CC50 at 216 h [20]: 500 nM
- selectivity ratio [21]: 13
- Activity (Hepatitis B virus [22]): Dose-dependent effect
- Activity [23]: Non-Toxic
